From patent US12378250B2, “Tricyclic compound as IRAK4 inhibitor” (KOREA RESEARCH INSTITUTE OF CHEMICAL TECHNOLOGY, priority 2018, dated 2025)

Tests used:
IRAK4 enzyme = target: T1, IRAK4 enzyme (Homo sapiens, UniProt Q9NWZ3); assay: IRAK4 enzyme inhibition degree (bead-based kinase assay, peptide substrate BMKC-2, 100 μM ATP); type: biochemical; settings: for inhibition at 1 µM: compound 1 μM
T1 sequence (Q9NWZ3 1-460): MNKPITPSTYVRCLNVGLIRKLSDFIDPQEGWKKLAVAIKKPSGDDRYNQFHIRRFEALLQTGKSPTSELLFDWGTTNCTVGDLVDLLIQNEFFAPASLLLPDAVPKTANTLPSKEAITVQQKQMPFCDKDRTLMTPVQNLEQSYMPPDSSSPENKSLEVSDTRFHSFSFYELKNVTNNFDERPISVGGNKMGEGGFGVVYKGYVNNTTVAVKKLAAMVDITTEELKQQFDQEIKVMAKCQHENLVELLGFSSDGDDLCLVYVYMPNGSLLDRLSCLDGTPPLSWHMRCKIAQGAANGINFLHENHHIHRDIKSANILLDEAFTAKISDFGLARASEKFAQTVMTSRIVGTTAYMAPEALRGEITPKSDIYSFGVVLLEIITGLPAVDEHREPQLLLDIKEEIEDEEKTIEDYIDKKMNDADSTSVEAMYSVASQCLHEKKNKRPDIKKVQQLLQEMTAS
Protocol: 2.5 μl of a compound diluted to 4-fold of a final concentration was put into a 384-well white plate (low volume). 2.5 μl of 0.4 ng/μl IRAK4 enzyme was added thereto, and the resulting mixture was totally reacted for 10 minutes. 5 μl of a mixed liquid of a 6 μM peptide substrate (BMKC-2) and 100 μM ATP was added thereto, the resulting mixture was reacted at room temperature for 60 minutes, then 2.5 μl of 10 mM EDTA was added thereto, and the resulting mixture was reacted again for 10 minutes. 40 nM anti-phospho Thr antibody was aliquoted to 2.5 μl each, 5 μl of a mixed solution of a 160 μl/ml acceptor bead and a donor bead was added thereto, and then the resulting mixture was reacted at room temperature for 60 minutes. Fluorescence signals were measured using a bead experimental apparatus (Fusion alpha-FP Microplate Reader, Perkin Elmer Inc.).
From the detected signal, an activity inhibition rate [% inhibition degree=(the average value of a compound−the average value of a negative control)/(the average value of a positive control−the average value of a negative control)×100] was calculated, and is shown in [Table 1]. Further, a % inhibition degree of the compound at each concentration was obtained, and then a 50% inhibition concentration (IC50 value) was analyzed by a non-linear regression analysis.

[1] = tested on: IFN-α secretion, peripheral blood mononuclear cells (PBMCs); assay: Suppression of IFN-α secretion in ODN2216-treated PBMCs (ELISA); type: cell-based; settings: PBMC, 500 nM ODN2216, 72 hours, read-out: IFN-α, % inhibition degree
Protocol: (§1) Peripheral blood mononuclear cells (PBMCs) isolated from whole blood were distributed in a 96-well plate. TNF-α was aliquoted at a density of 1×10^5 cells/well, IFN-α was aliquoted at a density of 2×10^5 cells/well, and TNF-α and IFN-α were treated with a compound diluted to 4-fold of a final concentration and totally cultured for 30 minutes. TNF-α was treated with 100 ng/ml lipopolysaccharide (LPS), IFN-α was treated with 500 nM ODN2216 (CpGTLR9 stimulator), and TNF-α and IFN-α were further cultured for 24 hours and 72 hours, respectively. An enzyme-linked immunosorbent assay (ELISA) was performed on TNF-α and IFN-α using an ELISA kit manufactured by BD Biosciences and an ELISA kit manufactured by PBL Assay Science, Inc., respectively. A cell supernatant and a standard drug were put into the ELISA plates and reacted for 2 hours. The plates were washed and a measurement antibody and streptavidin-HRP were sequentially added thereto. After the plates were washed, a TMB substrate was added thereto and reacted in a dark place. The reaction was stopped by adding a stop solution thereto, and the absorbance at 450 nm and 570 nm was measured using an absorber (OPTIMax tunable microplate reader, molecular devices). The experimental results are shown in [Table 2].

[2] = tested on: NF-κB promoter, THP1-Lucia™ NF-κB cell line; assay: NF-κB promoter inhibition, THP1-Lucia NF-κB cell line; type: cell-based; settings: 100 ng/ml LPS, 24 hours, read-out: NF-κB, % inhibition degree
Protocol: (§2) A THP1-Lucia™ NF-κB cell line (Invivogen) was used in an NF-κB inhibition experiment, and a THP1-Lucia™ ISG cell line was used in an ISG inhibition experiment. In the NF-κB inhibition experiment, cells were planted at a density of 1×10^4 cells/well in a 96-well plate, and in the ISG inhibition experiment, cells were planted at a density of 2×10^4 cells/well in a 96-well plate. The cells were treated with a compound diluted to 4-fold of a final concentration, and totally cultured for 30 minutes. NF-κB was treated with 100 ng/ml lipopolysaccharide (LPS), ISG was treated with a stimulator of 1 μg/ml Poly(dA:dT)/LyoVec, and NF-κB and ISG were cultured for 24 hours. 10 μl of a cell supernatant was taken and transferred to a 96-well plate. 50 μl of a Quanti-luc solution was aliquoted using an automatic aliquoter of a measurer (Envision Multilabel Plate Reader, Perkin Elmer, Inc.), and light emission signals were measured.

[3] = tested on: TNF-α secretion, peripheral blood mononuclear cells (PBMCs); assay: Suppression of TNF-α secretion in LPS-treated PBMCs (ELISA); type: cell-based; settings: PBMC, 100 ng/ml LPS, 24 hours, read-out: TNF-α, % inhibition degree
Protocol: as §1

[4] = tested on: ISG promoter, THP1-Lucia™ ISG cell line; assay: ISG promoter inhibition, THP1-Lucia ISG cell line; type: cell-based; settings: 1 μg/ml Poly(dA:dT)/LyoVec, 24 hours, read-out: ISG, % inhibition degree
Protocol: as §2

IC50 (IRAK4 enzyme) | inhibition at 1 µM (IRAK4 enzyme) | Structure (SMILES) | inhibition at 0.1 µM [1] | inhibition at 1 µM [1] | inhibition at 0.1 µM [2] | inhibition at 1 µM [2] | inhibition at 0.1 µM [3] | inhibition at 1 µM [3] | inhibition at 0.1 µM [4] | inhibition at 1 µM [4]
0.104 µM | 98% | N#Cc1cccc(-c2ccc3[nH]c4ncnc(N[C@H]5CC[C@H](N6CCOCC6)CC5)c4c3c2)c1 [Compound 6aak, 3-(4-((trans-4-morpholinocyclohexyl)amino)-9H-pyrimido[4,5-b]indol-6-yl) benzonitrile] | 53% | 98% | < 1% | 37% | 16% | 70% | < 1% | 30%
0.151 µM | 99% | Fc1cc(F)cc(-c2ccc3[nH]c4ncnc(N[C@H]5CC[C@H](N6CCOCC6)CC5)c4c3c2)c1 [Compound 6aal, 6-(3,5-difluorophenyl)-N-(trans-4-morpholinocyclohexyl)-9H-pyrimido[4,5-b]indole-4-amine] | 18% | 70% | < 1% | 15% | 13% | 57% | 1% | 17%
0.244 µM | 37% | Fc1ccc(-c2ccc3[nH]c4ncnc(N[C@H]5CC[C@H](N6CCOCC6)CC5)c4c3c2)c(F)c1 [Compound 6aam, 6-(2,4-difluorophenyl)-N-(trans-4-morpholinocyclohexyl)-9H-pyrimido[4,5-b]indole-4-amine] | 9% | 55% | < 1% | 11% | 5% | 28% | < 1% | < 1%
0.061 µM | 82% | Fc1ccc(-c2ccc3[nH]c4ncnc(N[C@H]5CC[C@H](N6CCOCC6)CC5)c4c3c2)cc1 [Compound 6aan, 6-(4-fluorophenyl)-N-(trans-4-morpholinocyclohexyl)-9H-pyrimido[4,5-b]indole-4-amine] | 28% | 71% | < 1% | 28% | 9% | 32% | < 1% | 6%
0.004 µM | 83% | CN(C)[C@H]1CC[C@H](Nc2ncnc3[nH]c4ccc(-c5cncc(F)c5)cc4c23)CC1 [Compound 6aba, trans-N1-(6-(5-fluoropyridin-3-yl)-9H-pyrimido[4,5-b]indol-4-yl)-N4,N4-dimethylcyclohexane-1,4-diamine] | 3.4% | 81.3% | 40% | 87% | 39.1% | 73.3% | 33% | 83%
0.01 µM | 82% | Cn1cc(-c2ccc3[nH]c4ncnc(N[C@H]5CC[C@H](N(C)C)CC5)c4c3c2)cn1 [Compound 6abb, trans-N1,N1-dimethyl-N4-(6-(1-methyl-1H-pyrazol-4-yl)-9H-pyrimido[4,5-b]indol-4-yl)cyclohexane-1,4-diamine] | 54% | 90.4% | 50% | 83% | 17.9% | 79.4% | 42% | 73%
0.0138 µM | 100% | Cn1cc(-c2ccc3[nH]c4ncnc(N[C@H]5CC[C@H](N6CCN(S(C)(=O)=O)CC6)CC5)c4c3c2)cn1 [Compound 6aca, 6-(1-methyl-1H-pyrazol-4-yl)-N-(trans-4-(4-(methylsulfonyl)piperazin-1-yl)cyclohexyl)-9H-pyrimido[4,5-b]indole-4-amine] | 40% | 99% | 28% | 85% | 29% | 107% | 23% | 73%
1.14 µM | 36% | Cn1cc(-c2ccc3[nH]c4ncnc(Nc5ccc(N6CCNCC6)cc5)c4c3c2)cn1 [Compound 6agaa, 6-(1-methyl-1H-pyrazol-4-yl)-N-(4-(piperazin-1-yl)phenyl)-9H-pyrimido[4,5-b]indole-4-amine] | 39% | 65% | < 1% | 24% | 17% | 27% | 7% | 16%
1.19 µM | 42% | c1cc(-c2ccc3[nH]c4ncnc(Nc5ccc(N6CCNCC6)cc5)c4c3c2)ccn1 [Compound 6agba, N-(4-(piperazin-1-yl)phenyl)-6-(pyridin-4-yl)-9H-pyrimido[4,5-b]indole-4-amine] | 56% | 74% | < 1% | 6% | 26% | 87% | 6% | 8%
1.36 µM | 50% | c1cc(-c2ccc3c(c2)[nH]c2ncnc(N[C@H]4CC[C@H](N5CCOCC5)CC4)c23)ccn1 [Compound 6caa, N-(trans-4-morpholinocyclohexyl)-7-(pyridin-4-yl)-9H-pyrimido[4,5-b]indole-4-amine] | 40% | 60% | 5% | 10% | 5% | 40% | 1% | 10%
 | 100% | Cn1cc(-c2ccc3[nH]c4nccc(N[C@H]5CC[C@H](N6CCOCC6)CC5)c4c3c2)cn1 [Compound 17a] | 67% | 103% | 31% | 78% | 22% | 75% | 14% | 93%
